Active and inactive are the calls of the source.
Legend:
HEK293 [1] = test: cells; type: functional, cell-based; settings: Homo sapiens
HEK293 [2] = test: inhibition of NOD1-driven NF-kB reporter – cell-based, luminescence, uHTS, primary screen (AID 1578); type: functional; settings: Homo sapiens
[3] = molecular target: Nucleotide-binding oligomerization domain-containing protein 2 (Homo sapiens, UniProt Q9HC29); test: inhibition of NOD2-driven NF-kB reporter – cell-based, luminescence, uHTS, HEK293 (AID 1566); type: functional
HEK293 [4] = test: cells; type: functional, cell-based; settings: Homo sapiens; remark: listed apart in the source
HEK293 [5] = test: NOD2 signaling inhibitors in MDP-stimulated cells, cell-based, uHTS, luminescence (AID 2001); type: functional; settings: Homo sapiens
HEK293 [6] = test: cells; type: functional, cell-based; settings: Homo sapiens; remark: listed apart in the source
Protein Rev = Protein Rev (Human immunodeficiency virus type 1 group M subtype B (isolate HXB2)(HIV-1), UniProt P04618); test: blockers of HIV Rev/RRE RNA complex – biochemical, fluorescence polarization, HIV-1, dose response (AID 434976); design: species or system Human immunodeficiency virus 1
[7] = molecular target: E3 ubiquitin-protein ligase XIAP (Homo sapiens, UniProt P98170); test: Counter Screen using XIAP-Bir3 for Chemical Antagonists of Bir1/2 domains of IAP-family anti-apoptotic proteins. [Related pubchem assays (depositor defined):AID1018, AID1449, AID1514, AID1638, AID1749, AID1750, AID488957, AID488963]
[8] = molecular target: Female germline-specific tumor suppressor gld-1 (Caenorhabditis elegans, UniProt Q17339); test: blockers of GLD-1/TGE RNA complex formation – biochemical, fluorescence polarization, C. elegans, dose response (AID 2802);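 also: fluorescence polarization of labeled TGE RNA bound by purified gld-1 protein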
[9] = molecular target: T1, Replicative DNA helicase DnaB (Mycobacterium tuberculosis, UniProt P9WMR3); test: DnaB intein splicing inhibitors, dose response, biochemical, cell-free fluorescence (AID 449749); type: functional
T1 sequence (P9WMR3 whole entry): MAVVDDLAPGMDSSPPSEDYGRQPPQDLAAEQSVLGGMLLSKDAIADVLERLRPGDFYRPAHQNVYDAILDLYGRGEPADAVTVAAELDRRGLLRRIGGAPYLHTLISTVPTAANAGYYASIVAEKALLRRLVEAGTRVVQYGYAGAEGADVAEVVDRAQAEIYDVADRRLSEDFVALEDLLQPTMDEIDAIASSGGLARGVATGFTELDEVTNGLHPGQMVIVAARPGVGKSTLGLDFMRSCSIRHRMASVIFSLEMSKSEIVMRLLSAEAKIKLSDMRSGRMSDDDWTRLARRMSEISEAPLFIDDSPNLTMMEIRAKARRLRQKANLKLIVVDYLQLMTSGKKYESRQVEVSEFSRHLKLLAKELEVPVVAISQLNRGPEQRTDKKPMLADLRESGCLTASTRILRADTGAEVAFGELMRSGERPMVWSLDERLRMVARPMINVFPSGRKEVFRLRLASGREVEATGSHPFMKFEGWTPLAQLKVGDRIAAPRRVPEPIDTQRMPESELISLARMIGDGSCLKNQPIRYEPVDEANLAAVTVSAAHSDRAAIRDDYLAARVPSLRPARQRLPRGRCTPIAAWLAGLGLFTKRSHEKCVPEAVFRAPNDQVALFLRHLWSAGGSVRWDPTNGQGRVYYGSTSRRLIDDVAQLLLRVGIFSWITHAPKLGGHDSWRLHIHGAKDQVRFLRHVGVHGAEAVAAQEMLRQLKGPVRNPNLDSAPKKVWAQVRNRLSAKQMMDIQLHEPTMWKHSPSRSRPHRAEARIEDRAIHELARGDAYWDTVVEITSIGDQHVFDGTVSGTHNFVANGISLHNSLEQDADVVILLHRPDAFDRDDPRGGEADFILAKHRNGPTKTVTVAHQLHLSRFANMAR

Protein RecA = molecular target: T2, Protein RecA (Mycobacterium tuberculosis, UniProt P9WHJ3); test: Fluorescence Cell-Free Homogeneous Dose Retest to Identify Inhibitors of RecA-Intein Splicing Activity. [Related pubchem assays (depositor defined):AID2097, AID2223, AID489010, AID492950]; type: functional
T2 sequence (P9WHJ3 whole entry): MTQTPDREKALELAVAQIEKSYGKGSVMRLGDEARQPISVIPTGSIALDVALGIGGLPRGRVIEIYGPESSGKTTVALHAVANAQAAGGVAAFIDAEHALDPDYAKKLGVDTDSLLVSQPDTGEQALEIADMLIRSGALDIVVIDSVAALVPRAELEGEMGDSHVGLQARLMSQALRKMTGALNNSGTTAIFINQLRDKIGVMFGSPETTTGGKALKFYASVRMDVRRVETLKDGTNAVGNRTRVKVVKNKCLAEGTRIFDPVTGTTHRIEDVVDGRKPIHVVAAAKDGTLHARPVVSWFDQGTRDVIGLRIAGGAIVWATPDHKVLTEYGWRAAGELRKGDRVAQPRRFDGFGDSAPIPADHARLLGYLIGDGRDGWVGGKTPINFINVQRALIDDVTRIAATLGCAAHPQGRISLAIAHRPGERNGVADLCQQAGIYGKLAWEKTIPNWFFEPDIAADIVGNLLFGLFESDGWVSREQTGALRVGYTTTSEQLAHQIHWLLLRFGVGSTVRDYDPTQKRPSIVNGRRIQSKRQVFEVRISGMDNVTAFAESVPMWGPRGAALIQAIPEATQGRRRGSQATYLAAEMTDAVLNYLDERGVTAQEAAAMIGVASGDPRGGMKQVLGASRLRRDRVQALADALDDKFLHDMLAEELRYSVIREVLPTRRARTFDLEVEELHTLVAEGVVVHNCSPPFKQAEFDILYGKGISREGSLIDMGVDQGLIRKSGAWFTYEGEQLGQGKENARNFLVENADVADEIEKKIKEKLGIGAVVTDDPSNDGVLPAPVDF

Coagulation factor XII [10] = molecular target: T3, Coagulation factor XII (Homo sapiens, UniProt P00748); type: functional;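 also: activated factor XIIa alpha cleaving a fluorogenic AMC peptide substrate; inhibitor potency from loss of enzyme activity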
T3 sequence (P00748 whole entry): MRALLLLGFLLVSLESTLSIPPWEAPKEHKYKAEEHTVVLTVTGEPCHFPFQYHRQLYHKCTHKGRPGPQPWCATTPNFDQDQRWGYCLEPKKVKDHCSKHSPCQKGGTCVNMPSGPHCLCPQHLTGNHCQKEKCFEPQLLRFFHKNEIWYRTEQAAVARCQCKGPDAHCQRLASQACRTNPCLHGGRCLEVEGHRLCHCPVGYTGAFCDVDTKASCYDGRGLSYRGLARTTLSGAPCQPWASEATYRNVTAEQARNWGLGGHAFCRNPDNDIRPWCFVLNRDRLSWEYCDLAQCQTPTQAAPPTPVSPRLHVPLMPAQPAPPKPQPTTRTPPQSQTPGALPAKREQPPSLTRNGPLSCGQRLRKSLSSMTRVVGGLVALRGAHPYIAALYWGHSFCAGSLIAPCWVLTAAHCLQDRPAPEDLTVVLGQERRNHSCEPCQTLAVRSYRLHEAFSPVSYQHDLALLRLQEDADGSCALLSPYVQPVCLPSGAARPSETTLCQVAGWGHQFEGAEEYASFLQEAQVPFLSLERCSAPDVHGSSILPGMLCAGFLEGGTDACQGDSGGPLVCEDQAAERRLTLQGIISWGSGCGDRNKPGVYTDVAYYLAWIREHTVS

Coagulation factor XII [11] = molecular target: T3, Coagulation factor XII; test: activated coagulation factor XII inhibitor potency, concentration-effect curve, cell-free (AID 716); type: functional
[12] = molecular target: T4, Mannose-6-phosphate isomerase (Homo sapiens, UniProt P34949); test: MPI inhibition at elevated mannose 6-phosphate – biochemical, fluorescence intensity, high mannose 6-phosphate, primary screen (AID 1220)
T4 sequence (P34949 whole entry): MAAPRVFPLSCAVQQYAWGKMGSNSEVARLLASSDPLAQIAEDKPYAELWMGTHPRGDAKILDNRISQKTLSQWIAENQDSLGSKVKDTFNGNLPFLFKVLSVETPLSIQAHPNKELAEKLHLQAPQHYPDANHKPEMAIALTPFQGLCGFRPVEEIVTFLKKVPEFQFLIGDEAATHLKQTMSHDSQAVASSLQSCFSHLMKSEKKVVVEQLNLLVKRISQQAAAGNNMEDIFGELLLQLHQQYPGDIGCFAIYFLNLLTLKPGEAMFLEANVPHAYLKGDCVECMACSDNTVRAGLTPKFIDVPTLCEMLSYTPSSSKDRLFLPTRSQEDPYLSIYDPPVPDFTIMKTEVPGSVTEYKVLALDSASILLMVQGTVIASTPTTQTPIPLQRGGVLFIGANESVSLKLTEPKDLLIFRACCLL

Beta-galactosidase = Beta-galactosidase (Escherichia coli, UniProt Q8VNN2); test: detection-enzyme interference by beta-gal modulators – biochemical, E. coli enzyme, set 3, artefact control for CCR6 antagonist project, dose response (AID 504712); type: functional
Beta-galactosidase, sequence (Q8VNN2 whole entry): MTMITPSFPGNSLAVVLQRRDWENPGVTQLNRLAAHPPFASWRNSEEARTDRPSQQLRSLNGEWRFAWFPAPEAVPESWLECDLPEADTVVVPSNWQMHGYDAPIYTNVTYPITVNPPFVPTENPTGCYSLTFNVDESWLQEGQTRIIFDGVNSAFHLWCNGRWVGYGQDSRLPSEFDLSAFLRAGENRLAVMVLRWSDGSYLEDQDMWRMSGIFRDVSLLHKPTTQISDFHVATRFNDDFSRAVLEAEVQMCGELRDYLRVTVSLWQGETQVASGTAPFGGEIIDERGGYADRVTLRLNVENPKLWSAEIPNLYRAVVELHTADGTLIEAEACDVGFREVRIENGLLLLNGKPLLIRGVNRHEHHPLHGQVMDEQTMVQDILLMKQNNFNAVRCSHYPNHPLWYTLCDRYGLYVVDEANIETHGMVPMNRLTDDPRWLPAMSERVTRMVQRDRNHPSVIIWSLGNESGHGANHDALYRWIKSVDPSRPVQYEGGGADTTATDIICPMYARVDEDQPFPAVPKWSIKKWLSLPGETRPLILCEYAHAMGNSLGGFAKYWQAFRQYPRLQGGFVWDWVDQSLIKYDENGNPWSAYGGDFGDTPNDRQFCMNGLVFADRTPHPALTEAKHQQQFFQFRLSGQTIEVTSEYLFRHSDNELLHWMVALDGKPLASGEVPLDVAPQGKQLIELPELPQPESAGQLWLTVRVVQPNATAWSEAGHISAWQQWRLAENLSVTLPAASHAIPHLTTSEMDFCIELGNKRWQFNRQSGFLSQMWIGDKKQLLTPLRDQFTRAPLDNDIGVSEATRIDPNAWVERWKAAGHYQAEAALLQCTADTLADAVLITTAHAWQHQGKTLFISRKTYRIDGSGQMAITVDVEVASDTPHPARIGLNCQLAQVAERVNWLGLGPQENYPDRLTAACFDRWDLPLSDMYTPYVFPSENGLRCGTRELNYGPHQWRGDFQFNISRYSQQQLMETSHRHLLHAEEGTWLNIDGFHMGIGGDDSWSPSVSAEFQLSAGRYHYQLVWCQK

Nucleotide-binding oligomerization domain-containing protein 2, sequence (Q9HC29 whole entry, the tested form may be a part): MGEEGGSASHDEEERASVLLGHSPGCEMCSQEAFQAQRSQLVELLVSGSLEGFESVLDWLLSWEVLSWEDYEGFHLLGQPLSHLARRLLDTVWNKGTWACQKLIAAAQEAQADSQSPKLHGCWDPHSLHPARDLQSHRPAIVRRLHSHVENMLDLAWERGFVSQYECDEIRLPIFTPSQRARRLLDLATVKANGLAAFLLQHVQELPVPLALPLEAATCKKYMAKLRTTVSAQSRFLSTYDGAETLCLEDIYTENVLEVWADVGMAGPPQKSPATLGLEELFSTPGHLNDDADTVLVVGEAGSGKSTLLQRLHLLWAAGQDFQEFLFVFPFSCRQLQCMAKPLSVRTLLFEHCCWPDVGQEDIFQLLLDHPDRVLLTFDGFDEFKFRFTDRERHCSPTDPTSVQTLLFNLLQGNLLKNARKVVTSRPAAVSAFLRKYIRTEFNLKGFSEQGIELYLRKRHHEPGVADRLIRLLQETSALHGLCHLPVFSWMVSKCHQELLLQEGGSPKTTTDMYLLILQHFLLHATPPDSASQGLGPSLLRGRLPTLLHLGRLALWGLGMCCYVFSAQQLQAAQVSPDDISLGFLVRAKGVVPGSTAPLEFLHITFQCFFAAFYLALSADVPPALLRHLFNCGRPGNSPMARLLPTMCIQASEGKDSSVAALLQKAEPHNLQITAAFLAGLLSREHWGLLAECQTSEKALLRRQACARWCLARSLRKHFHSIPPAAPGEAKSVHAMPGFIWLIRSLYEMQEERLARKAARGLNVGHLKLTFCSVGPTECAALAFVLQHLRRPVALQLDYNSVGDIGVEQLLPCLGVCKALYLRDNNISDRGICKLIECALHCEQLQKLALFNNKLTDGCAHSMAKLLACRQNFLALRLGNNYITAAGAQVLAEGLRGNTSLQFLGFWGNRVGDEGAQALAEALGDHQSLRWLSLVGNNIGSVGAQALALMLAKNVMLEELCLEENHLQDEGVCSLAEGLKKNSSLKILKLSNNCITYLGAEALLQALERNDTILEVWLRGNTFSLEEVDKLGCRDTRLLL
Protein Rev, sequence (P04618 whole entry): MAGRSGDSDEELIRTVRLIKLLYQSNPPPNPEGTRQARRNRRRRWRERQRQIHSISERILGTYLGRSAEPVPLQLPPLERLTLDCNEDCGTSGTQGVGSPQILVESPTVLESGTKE
E3 ubiquitin-protein ligase XIAP, sequence (P98170 whole entry): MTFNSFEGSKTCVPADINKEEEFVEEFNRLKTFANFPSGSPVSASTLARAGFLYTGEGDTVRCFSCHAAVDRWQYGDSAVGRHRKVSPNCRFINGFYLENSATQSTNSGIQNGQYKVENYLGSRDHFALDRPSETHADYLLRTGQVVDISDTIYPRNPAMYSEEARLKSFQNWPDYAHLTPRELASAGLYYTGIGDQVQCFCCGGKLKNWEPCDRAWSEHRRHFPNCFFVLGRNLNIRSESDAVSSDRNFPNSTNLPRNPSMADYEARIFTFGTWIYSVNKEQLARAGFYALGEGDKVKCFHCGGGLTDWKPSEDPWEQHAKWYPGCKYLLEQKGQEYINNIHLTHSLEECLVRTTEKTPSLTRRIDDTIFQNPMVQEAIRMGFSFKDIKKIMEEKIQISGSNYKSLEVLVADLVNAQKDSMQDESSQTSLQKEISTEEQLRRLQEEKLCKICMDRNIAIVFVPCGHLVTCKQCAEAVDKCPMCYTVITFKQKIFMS
Female germline-specific tumor suppressor gld-1, sequence (Q17339 whole entry): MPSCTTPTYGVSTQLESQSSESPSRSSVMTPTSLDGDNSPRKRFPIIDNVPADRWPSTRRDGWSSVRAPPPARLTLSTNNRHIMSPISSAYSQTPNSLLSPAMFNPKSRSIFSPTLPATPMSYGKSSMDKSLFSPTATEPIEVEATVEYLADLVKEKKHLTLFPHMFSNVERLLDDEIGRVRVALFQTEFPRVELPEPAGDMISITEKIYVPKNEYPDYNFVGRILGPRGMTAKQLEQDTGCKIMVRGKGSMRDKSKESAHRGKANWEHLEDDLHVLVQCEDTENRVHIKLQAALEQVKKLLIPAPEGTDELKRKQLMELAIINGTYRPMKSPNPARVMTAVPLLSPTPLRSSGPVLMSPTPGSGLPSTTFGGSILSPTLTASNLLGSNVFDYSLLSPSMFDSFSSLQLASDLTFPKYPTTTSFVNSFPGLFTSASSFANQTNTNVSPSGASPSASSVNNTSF

Compound | IC50 (HEK293 [1]) | EC50 (HEK293 [2]) | EC50 [3] | IC50 (HEK293 [4]) | IC50 (HEK293 [5]) | IC50 (HEK293 [6]) | IC50 (Coagulation factor XII [11]) | further results
COc1cc2c(cc1OC)C(c1ccc(-c3cc(Cl)ccc3Cl)o1)=NCC2 | > 20 µM (inactive) | > 20 µM (inactive) | > 20 µM (inactive) | 5.36 µM (active) | 2.75 µM (active) | > 20 µM (inactive) | – | –
COCCOC(=O)c1sc(=S)n(CCOC)c1N | – | – | – | – | – | – | – | IC50 (Protein Rev): 11.1 µM (not active); IC50 [7]: 0.699 µM (active); IC50 [8]: 5.31 µM (active)
CC(=O)Nc1ccc(OC(=O)c2ccco2)cc1 | – | – | – | – | – | – | – | AC50 [9]: 93.9 µM (active); EC50 (Protein RecA): 12.1 µM (active); IC50 (Coagulation factor XII [10]): > 50 µM (inactive)
COc1ccc(CNc2nc(NCc3ccc(OC)cc3)n(S(C)(=O)=O)n2)cc1 | – | – | – | – | – | – | > 50 µM (inactive) | –
CN1CC2(Cc3c1ccc1ccccc31)C(=O)OC(C)(C)OC2=O | – | – | – | – | – | – | > 50 µM (inactive) | IC50 [12]: > 50 µM (not active)
O=C(NC(=S)N1CCN(Cc2ccc3c(c2)OCO3)CC1)c1cccc(Br)c1 | > 20 µM (inactive) | 7.03 µM (active) | > 20 µM (inactive) | 16.1 µM (active) | 6.54 µM (inactive) | > 20 µM (inactive) | – | IC50 (Beta-galactosidase): > 66.6 µM (inactive)

From ChEMBL document CHEMBL1201862, “PubChem BioAssay data set” (2004)
